One test has as its target human orexin-2 receptor (Homo sapiens (Human), UniProt O43614). Put plainly: FLIPR Ca2+ flux assay, hOX2R. Format: cell-based. The settings on record: CHO cells expressing the receptor; agonist 70 pM Ala-6,12 human orexin-A. The protocol:
The utility of the compounds in accordance with the present invention as orexin receptor OX1R and/or OX2R antagonists may be readily determined without undue experimentation by methodology well known in the art, including the “FLIPR Ca^2+ Flux Assay” (Okumura et al., Biochem. Biophys. Res. Comm. 280:976-981, 2001). In a typical experiment the OX1 and OX2 receptor antagonistic activity of the compounds of the present invention was determined in accordance with the following experimental method. For intracellular calcium measurements, Chinese hamster ovary (CHO) cells expressing the rat orexin-1 receptor or the human orexin-2 receptor, are grown in Iscove's modified DMEM containing 2 mM L-glutamine, […], 1% hypoxanthine-thymidine supplement, 100 U/ml penicillin, 100 μg/ml streptomycin and 10% heat-inactivated fetal calf serum (FCS). The cells are seeded at 20,000 cells/well into Becton-Dickinson black 384-well clear bottom sterile plates coated with poly-D-lysine. All reagents were from GIBCO-Invitrogen Corp. The seeded plates are incubated overnight at 37° C. and 5% CO2. Ala-6,12 human orexin-A as the agonist is prepared as a 1 mM stock solution in 1% bovine serum albumin (BSA) and diluted in assay buffer (HBSS containing 20 mM HEPES, 0.1% BSA and 2.5 mM probenecid, pH7.4) for use in the assay at a final concentration of 70 pM. Test compounds are prepared as 10 mM stock solution in DMSO, then diluted in 384-well plates, first in DMSO, then assay buffer. On the day of the assay, cells are washed 3 times with 100 μl assay buffer and then incubated for 60 min (37° C., 5% CO2) in 60 μl assay buffer containing 1 μM Fluo-4AM ester, 0.02% pluronic acid, and 1% BSA. The dye loading solution is then aspirated and cells are washed 3 times with 100 μl assay buffer. 30 μl of that same buffer is left in each well. Within the Fluorescent Imaging Plate Reader (FLIPR, Molecular Devices), test compounds are added to the plate in a volume of 25 μl, incubated for 5 min and finally 25 μl of agonist is added. Fluorescence is measured for each well at 1 second intervals for 5 minutes and the height of each fluorescence peak is compared to the height of the fluorescence peak induced by 70 pM Ala-6,12 orexin-A with buffer in place of antagonist. For each antagonist, IC50 value (the concentration of compound needed to inhibit 50% of the agonist response) is determined. Alternatively, compound potency can be assessed by a radioligand binding assay (described in Bergman et. al. Bioorg. Med. Chem. Lett. 2008, 18, 1425-1430) in which the inhibition constant (Ki) is determined in membranes prepared from CHO cells expressing either the OX1 or OX2 receptor. The intrinsic orexin receptor antagonist activity of a compound which may be used in the present invention may be determined by these assays.
In general terms: Calcium assays in cells follow changes in intracellular calcium, usually with a dye or a luminescent sensor.

The target in test [1] is hOX1R (orexin-1 receptor) (Homo sapiens, UniProt O43613). Kind of test: FLIPR Ca2+ flux assay, hOX1R. To be noted: CHO cells expressing the receptor; agonist 70 pM Ala-6,12 human orexin-A. Format: cell-based.

Sequence of human orexin-2 receptor (O43614 whole entry): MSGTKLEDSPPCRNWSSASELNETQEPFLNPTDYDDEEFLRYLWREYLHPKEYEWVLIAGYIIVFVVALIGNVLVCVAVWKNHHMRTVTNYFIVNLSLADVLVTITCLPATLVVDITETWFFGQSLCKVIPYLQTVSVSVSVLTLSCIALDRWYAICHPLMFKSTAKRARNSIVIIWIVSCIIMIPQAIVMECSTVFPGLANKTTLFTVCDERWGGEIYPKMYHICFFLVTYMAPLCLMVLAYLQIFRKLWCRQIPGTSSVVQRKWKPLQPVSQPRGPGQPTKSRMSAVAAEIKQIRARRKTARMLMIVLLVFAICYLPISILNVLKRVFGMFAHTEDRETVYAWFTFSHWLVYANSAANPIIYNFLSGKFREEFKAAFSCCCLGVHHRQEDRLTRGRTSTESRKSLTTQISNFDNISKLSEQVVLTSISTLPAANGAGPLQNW

In the case of `CCN(CCn1nc(C)c(C(C)(C)O)n1)C(=O)c1ccccc1C1CC1(F)F` (centres unmarked) [Example 38, 2-(2,2-difluorocyclopropyl)-N-ethyl-N-(2-(4-(2-hydroxypropan-2-yl)-5-methyl-2H-1,2,3-triazol-2-yl)ethyl)benzamide], the IC50 at human orexin-2 receptor turned out to be 10 nM; in test [1] it was 1480 nM.

For the compound `CCN(CCn1nc(C)c(C(C)(C)O)n1)C(=O)c1ncccc1-c1ccccc1` [Example 44, N-ethyl-N-(2-(4-(2-hydroxypropan-2-yl)-5-methyl-2H-1,2,3-triazol-2-yl)ethyl)-3-phenylpicolinamide], the IC50 was 106 nM on human orexin-2 receptor and above 10000 nM in test [1].

With `CCN(CCn1nc(C)c(C(C)(C)O)n1)C(=O)c1ccccc1OC(F)F` [Example 25, 2-(difluoromethoxy)-N-ethyl-N-(2-(4-(2-hydroxypropan-2-yl)-5-methyl-2H-1,2,3-triazol-2-yl)ethyl)benzamide], the 50% inhibitory concentration (IC50) at human orexin-2 receptor is 35 nM; in test [1], above 10000 nM.

Consider `CCN(CCn1nc(C)c(C(C)(C)O)n1)C(=O)c1cccnc1OCC(F)F` [Example 24, 2-(2,2-difluoroethoxy)-N-ethyl-N-(2-(4-(2-hydroxypropan-2-yl)-5-methyl-2H-1,2,3-triazol-2-yl)ethyl)nicotinamide], for which the IC50 at human orexin-2 receptor is 44 nM; in test [1] it was above 10000 nM.

Turning to `CCN(CCn1nc(C)c(C(C)(C)O)n1)C(=O)c1cccnc1-c1ccccc1` [Example 31, N-ethyl-N-(2-(4-(2-hydroxypropan-2-yl)-5-methyl-2H-1,2,3-triazol-2-yl)ethyl)-2-phenylnicotinamide], the results for the IC50 (at human orexin-2 receptor; in test [1]) were 33 nM and above 10000 nM, respectively.

Regarding `CCN(CCn1nc(C)c(C(C)(C)O)n1)C(=O)c1ccccc1-n1cccn1` [Example 29, N-ethyl-N-(2-(4-(2-hydroxypropan-2-yl)-5-methyl-2H-1,2,3-triazol-2-yl)ethyl)-2-(1H-pyrazol-1-yl)benzamide], the results for the half-inhibitory concentration (IC50) (at human orexin-2 receptor; in test [1]) were 28 nM and above 10000 nM, respectively.

Consider `CCN(CCn1nc(C)c(C(C)(C)O)n1)C(=O)c1ccccc1N1CCCC1` [Example 41, N-ethyl-N-(2-(4-(2-hydroxypropan-2-yl)-5-methyl-2H-1,2,3-triazol-2-yl)ethyl)-2-(pyrrolidin-1-yl)benzamide], for which the IC50 was 15 nM on human orexin-2 receptor and 2100 nM in test [1].

On to `CCN(CCn1nc(C)c(C(C)(C)O)n1)C(=O)c1ccccc1OCC(F)(F)F` [Example 33, N-ethyl-N-(2-(4-(2-hydroxypropan-2-yl)-5-methyl-2H-1,2,3-triazol-2-yl)ethyl)-2-(2,2,2-trifluoroethoxy) benzamide], for which the IC50 at human orexin-2 receptor was 52 nM; in test [1], above 10000 nM.

As for `CCN(CCn1ncc(C(C)(C)O)n1)C(=O)c1ccccc1C1CC1` [Example 4, 2-Cyclopropyl-N-ethyl-N-(2-(4-(2-hydroxypropan-2-yl)-2H-1,2,3-triazol-2-yl)ethyl)benzamide], the results for the IC50 (on human orexin-2 receptor; in test [1]) were 47 nM and above 10000 nM, respectively.

For the compound `CCN(CCn1nc(C)c(C(C)(C)O)n1)C(=O)c1ccccc1C1CC1` [Example 28, 2-cyclopropyl-N-ethyl-N-(2-(4-(2-hydroxypropan-2-yl)-5-methyl-2H-1,2,3-triazol-2-yl)ethyl)benzamide], the IC50 on human orexin-2 receptor was determined as 13 nM; in test [1], 1560 nM.

Consider `CCN(CCn1nc(C)c(C(C)(C)O)n1)C(=O)c1ccccc1-n1ncnn1` [Example 42, N-ethyl-N-(2-(4-(2-hydroxypropan-2-yl)-5-methyl-2H-1,2,3-triazol-2-yl)ethyl)-2-(2H-tetrazol-2-yl)benzamide], for which the IC50 on human orexin-2 receptor is 29 nM; in test [1], above 10000 nM.

Take `CCN(CCn1nc(C)c(C(C)(C)O)n1)C(=O)c1nccnc1-n1cccn1` [Example 47, N-ethyl-N-(2-(4-(2-hydroxypropan-2-yl)-5-methyl-2H-1,2,3-triazol-2-yl)ethyl)-3-(1H-pyrazol-1-yl)pyrazine-2-carboxamide]: the half-inhibitory concentration (IC50) at human orexin-2 receptor was 239 nM; in test [1] it was above 10000 nM.

For the compound `CCN(CCn1ccc(C(C)(C)O)n1)C(=O)c1ccccc1-n1nccn1` [Example 50, N-Ethyl-N-{2-[3-(1-hydroxy-1-methylethyl)-1H-pyrazol-1-yl]ethyl}-2-(2H-1,2,3-triazol-2-yl)benzamide], the IC50 at human orexin-2 receptor is 23 nM; in test [1], above 10000 nM.

The term IC50 denotes the concentration at which inhibition is half-maximal. A higher IC50 goes with lower potency.

The values are drawn from patent publication US10155750B2, “Amidoethyl azole orexin receptor antagonists” (Merck Sharp & Dohme Corp., priority 2014, dated 2018).
